This is an account of results in publication PMC6367069 (Rapid communications in mass spectrometry : RCM, 2019).

Read-outs that look alike come from different tables or passages of the source.

Assay [1] deals with PPARγ. Conditions: endogenous ligand of PPARγ; cited from earlier work.
Assay [2] addresses T1, PPARγ (Homo sapiens, UniProt P37231).
T1 sequence (P37231 1-505): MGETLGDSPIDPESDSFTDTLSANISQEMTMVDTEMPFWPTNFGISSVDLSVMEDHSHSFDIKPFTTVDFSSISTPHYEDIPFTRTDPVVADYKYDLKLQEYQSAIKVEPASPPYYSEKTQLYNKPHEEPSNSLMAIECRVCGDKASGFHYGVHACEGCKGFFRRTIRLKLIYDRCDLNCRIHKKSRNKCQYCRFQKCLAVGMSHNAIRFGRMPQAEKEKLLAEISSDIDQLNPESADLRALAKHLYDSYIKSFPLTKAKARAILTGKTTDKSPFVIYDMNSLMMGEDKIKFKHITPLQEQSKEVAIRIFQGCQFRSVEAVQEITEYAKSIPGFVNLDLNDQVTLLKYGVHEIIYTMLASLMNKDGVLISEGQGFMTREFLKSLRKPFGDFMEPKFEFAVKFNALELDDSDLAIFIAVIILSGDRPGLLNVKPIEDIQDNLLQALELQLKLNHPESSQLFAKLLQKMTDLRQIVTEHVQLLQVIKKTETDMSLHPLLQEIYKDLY
The following applies: for binding to immobilized PPARγ (SPR binding analysis): 50 μM and 100 μM analyte, 25 °C; for Kd: single cycle kinetics, heterogeneous ligand model. In general terms: In SPR one partner is held on a chip, and binding of the other changes the refractive index at the surface.

As usually defined, the EC50 is the concentration at which the effect is half-maximal. Regarding `CCCCC/C=C/C=C1/C(=O)C=C[C@@H]1C/C=C\CCCC(=O)O` [15Δ-PGJ2, 15-deoxy-delta-12,14-prostaglandin J2], the EC50 in assay [1] was 2 µM. In addition, the “binding to immobilized PPARγ (SPR binding analysis)” value in assay [2] is given as “direct binding”. In addition, the Kd in assay [2] (read-out: Kd1) was determined as 10 µM; in assay [2] (read-out: Kd2), 311 µM.
Regarding `CCCCC(CC)COC(=O)c1ccccc1C(=O)OCC(CC)CCCC` (centres unmarked) [DEHP, di-(2-ethylhexyl)phthalate], the “binding to immobilized PPARγ (SPR binding analysis)” value in assay [2] is given as “almost no detectable binding”.
